Assays:
CK1α = molecular target: T1, CK1α (Homo sapiens, UniProt P48729+Q96SW2); assay: HiBiT degradation assay, CK1α, Procedure A; type: cell-based; conditions: six hours
T1 construct: CSNK1A1-HiBit KI HEK293(LgBit) Cells; host or cells: HEK293(LgBit) knock-in cells
Outline: (§1)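 DC50 and Ymin (% remaining) were derived by four-parameter fitting of luminescence data. The data come from a six-hour, 37° C compound exposure of cells in DMEM/10% FBS over a ten-point range, 10 μM to 0.005 μM, followed by Nano-Glo HiBiT lytic detection.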

GSPT1 = GSPT1 (Homo sapiens, UniProt P15170+Q96SW2); assay: HiBiT degradation assay, GSPT1, Procedure A; type: cell-based; design: HiBit-GSPT1 KI HEK293(LgBit) Cells; host or cells: HEK293(LgBit) knock-in cells; conditions: six hours
Outline: as §1

T1 sequence (P48729 whole entry): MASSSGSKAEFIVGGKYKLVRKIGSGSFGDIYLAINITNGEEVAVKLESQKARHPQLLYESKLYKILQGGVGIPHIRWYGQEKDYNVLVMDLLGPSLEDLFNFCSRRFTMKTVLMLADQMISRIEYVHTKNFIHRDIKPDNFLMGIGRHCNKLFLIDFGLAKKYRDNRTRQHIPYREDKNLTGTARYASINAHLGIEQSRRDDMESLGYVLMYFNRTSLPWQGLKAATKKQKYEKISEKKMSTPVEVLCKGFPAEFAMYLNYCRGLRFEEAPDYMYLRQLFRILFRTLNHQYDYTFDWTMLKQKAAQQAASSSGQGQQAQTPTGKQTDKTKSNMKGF
T1 sequence (Q96SW2 whole entry): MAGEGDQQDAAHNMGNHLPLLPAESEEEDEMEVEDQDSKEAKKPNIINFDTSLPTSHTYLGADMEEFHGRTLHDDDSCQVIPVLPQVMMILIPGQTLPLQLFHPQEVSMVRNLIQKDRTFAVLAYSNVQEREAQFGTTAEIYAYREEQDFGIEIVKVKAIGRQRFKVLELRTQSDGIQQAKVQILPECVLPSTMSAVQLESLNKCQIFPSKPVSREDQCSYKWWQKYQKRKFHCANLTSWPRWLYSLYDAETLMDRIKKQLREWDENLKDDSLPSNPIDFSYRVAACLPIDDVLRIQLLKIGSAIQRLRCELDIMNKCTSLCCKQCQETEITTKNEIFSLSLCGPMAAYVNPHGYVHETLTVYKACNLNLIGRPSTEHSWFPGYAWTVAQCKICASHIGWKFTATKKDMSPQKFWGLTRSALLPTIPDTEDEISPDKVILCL
T1 sequence (Q16531 whole entry partner): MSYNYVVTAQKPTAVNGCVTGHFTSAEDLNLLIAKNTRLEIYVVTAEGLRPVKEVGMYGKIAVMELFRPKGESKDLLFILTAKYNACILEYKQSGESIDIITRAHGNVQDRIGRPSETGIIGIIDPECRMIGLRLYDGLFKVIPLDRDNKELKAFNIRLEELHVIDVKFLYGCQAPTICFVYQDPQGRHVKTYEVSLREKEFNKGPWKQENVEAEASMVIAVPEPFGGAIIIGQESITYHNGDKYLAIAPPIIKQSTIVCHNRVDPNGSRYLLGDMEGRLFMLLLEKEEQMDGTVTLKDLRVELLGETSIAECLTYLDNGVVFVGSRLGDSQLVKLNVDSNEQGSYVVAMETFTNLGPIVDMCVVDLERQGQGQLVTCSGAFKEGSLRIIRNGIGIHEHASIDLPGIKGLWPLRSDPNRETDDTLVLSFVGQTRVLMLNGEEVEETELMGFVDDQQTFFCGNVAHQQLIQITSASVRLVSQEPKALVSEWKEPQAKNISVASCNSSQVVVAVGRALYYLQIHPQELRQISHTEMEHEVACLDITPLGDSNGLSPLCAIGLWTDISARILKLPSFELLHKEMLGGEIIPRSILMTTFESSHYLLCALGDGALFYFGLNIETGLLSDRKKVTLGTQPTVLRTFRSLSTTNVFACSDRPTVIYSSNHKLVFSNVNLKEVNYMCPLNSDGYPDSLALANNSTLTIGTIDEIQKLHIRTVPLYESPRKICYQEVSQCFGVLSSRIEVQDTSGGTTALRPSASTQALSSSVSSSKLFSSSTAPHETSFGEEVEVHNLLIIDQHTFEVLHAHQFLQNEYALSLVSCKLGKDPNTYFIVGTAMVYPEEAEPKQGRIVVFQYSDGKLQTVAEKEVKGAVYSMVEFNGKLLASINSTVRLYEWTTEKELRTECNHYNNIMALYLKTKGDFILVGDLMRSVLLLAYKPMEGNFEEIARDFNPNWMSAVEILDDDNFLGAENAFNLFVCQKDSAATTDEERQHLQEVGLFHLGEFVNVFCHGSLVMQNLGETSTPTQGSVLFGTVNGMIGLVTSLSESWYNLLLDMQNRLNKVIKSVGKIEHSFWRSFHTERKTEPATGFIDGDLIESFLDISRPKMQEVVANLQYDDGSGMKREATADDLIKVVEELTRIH
Sequence of GSPT1 (P15170 whole entry): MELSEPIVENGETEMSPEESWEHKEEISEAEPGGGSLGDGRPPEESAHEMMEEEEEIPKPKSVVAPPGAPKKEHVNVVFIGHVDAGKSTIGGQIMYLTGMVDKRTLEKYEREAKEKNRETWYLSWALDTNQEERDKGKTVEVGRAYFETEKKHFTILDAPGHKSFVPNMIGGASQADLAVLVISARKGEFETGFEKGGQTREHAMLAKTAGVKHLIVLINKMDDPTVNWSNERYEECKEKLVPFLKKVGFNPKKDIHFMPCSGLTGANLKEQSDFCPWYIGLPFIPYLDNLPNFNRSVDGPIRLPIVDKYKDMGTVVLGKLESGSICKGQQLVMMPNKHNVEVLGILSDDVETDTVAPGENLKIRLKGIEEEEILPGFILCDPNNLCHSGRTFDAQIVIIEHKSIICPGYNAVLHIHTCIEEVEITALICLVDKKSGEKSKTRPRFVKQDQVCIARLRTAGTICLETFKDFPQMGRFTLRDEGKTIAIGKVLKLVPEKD
Sequence of GSPT1 (Q96SW2 whole entry): as the sequence (Q96SW2 whole entry) above
Sequence of GSPT1 (Q16531 whole entry partner): as the sequence (Q16531 whole entry partner) above

CK1α Ymin (CK1α)	DC50 (CK1α)	DC50 (GSPT1)	GSPT1 Ymin (GSPT1)	SMILES
E (E = >25-75% remaining)	≥ 25 nM	≥ 25 nM	F (F = >75-100% remaining)	Cn1cnc(-c2ccc3c(c2)CN(C2CCC(=O)NC2=O)C3=O)c1-c1ccc(N2CCOCC2)nc1 (stereo not shown) [Example 404]
F (F = >75-100% remaining)	< 25 nM	< 25 nM	F (F = >75-100% remaining)	Cn1cnc(-c2ccc3c(c2)CN(C2CCC(=O)NC2=O)C3=O)c1-c1cncc(OCc2ccccc2)c1 (stereo not shown) [Example 405]
D (D = >10- 25% remaining)	≥ 25 nM	< 25 nM	E (E = >25-75% remaining)	Cn1cnc(-c2ccc3c(c2)CN(C2CCC(=O)NC2=O)C3=O)c1-c1cnn(Cc2ccccc2)c1 (stereo not shown) [Example 406]
C (C = 0-10% remaining)	< 25 nM	≥ 25 nM	E (E = >25-75% remaining)	Cc1c(-c2c(-c3ccc4c(c3)CN(C3CCC(=O)NC3=O)C4=O)ncn2C)cnn1-c1ccccc1 (stereo not shown) [Example 407]
E (E = >25-75% remaining)	< 25 nM	≥ 25 nM		CN1CCN(c2cccc(-c3c(-c4ccc5c(c4)CN(C4CCC(=O)NC4=O)C5=O)ncn3C)c2)CC1 (stereo not shown) [Example 408]
E (E = >25-75% remaining)	≥ 25 nM	≥ 25 nM	F (F = >75-100% remaining)	Cn1ncc(-c2ccc3c(c2)CN(C2CCC(=O)NC2=O)C3=O)c1-c1cccc(CCCCCCc2ccccc2)c1 (stereo not shown) [Example 409]
E (E = >25-75% remaining)	< 25 nM	≥ 25 nM	F (F = >75-100% remaining)	CCOC(=O)Cc1cccc(-c2c(-c3ccc4c(c3)CN(C3CCC(=O)NC3=O)C4=O)cnn2C)c1 (stereo not shown) [Example 410]
E (E = >25-75% remaining)	< 25 nM	≥ 25 nM	F (F = >75-100% remaining)	COCCCOc1ccc(-c2c(-c3ccc4c(c3)CN(C3CCC(=O)NC3=O)C4=O)cnn2C)cc1 (stereo not shown) [Example 411]
E (E = >25-75% remaining)	≥ 25 nM	≥ 25 nM	F (F = >75-100% remaining)	Cn1ncc(-c2ccc3c(c2)CN(C2CCC(=O)NC2=O)C3=O)c1-c1cccc(N2CCNCC2)c1 (stereo not shown) [Example 412]
E (E = >25-75% remaining)	≥ 25 nM	≥ 25 nM	F (F = >75-100% remaining)	Cn1ncc(-c2ccc3c(c2)CN(C2CCC(=O)NC2=O)C3=O)c1-c1ccc(C2CCNCC2)cc1 (stereo not shown) [Example 413]
E (E = >25-75% remaining)	≥ 25 nM	≥ 25 nM	F (F = >75-100% remaining)	Cn1ncc(-c2ccc3c(c2)CN(C2CCC(=O)NC2=O)C3=O)c1-c1ccc(CN2CCNCC2)cc1 (stereo not shown) [Example 414]
E (E = >25-75% remaining)	< 25 nM	≥ 25 nM	F (F = >75-100% remaining)	Cn1cc(-c2ccc3c(c2)CN(C2CCC(=O)NC2=O)C3=O)nc1C1OCCCO1 (stereo not shown) [Example 415, 3-(5-(2-(1,3-dioxan-2-yl)-1-methyl-1H-imidazol-4-yl)-1-oxoisoindolin-2-yl) piperidine-2,6-dione]
E (E = >25-75% remaining)	< 25 nM	≥ 25 nM	F (F = >75-100% remaining)	Cn1ncc(-c2ccc3c(c2)CN(C2CCC(=O)NC2=O)C3=O)c1-c1ccc(OC(F)F)cc1 (stereo not shown) [Example 416, 3-(5-(5-(4-(difluoromethoxy)phenyl)-1-methyl-1H-pyrazol-4-yl)-1-oxoisoindolin-2-yl)piperidine-2,6-dione]

The remaining lines, values behind:

SMILES	CK1α Ymin (CK1α)	DC50 (CK1α)	DC50 (GSPT1)	GSPT1 Ymin (GSPT1)
Cn1ncc(-c2ccc3c(c2)CN(C2CCC(=O)NC2=O)C3=O)c1-c1ccc2nccn2c1 (stereo not shown) [Example 382]	D (D = >10- 25% remaining)	≥ 25 nM	≥ 25 nM	F (F = >75-100% remaining)
Cn1ncc(-c2ccc3c(c2)CN(C2CCC(=O)NC2=O)C3=O)c1-c1cnn2ccccc12 (stereo not shown) [Example 383]	E (E = >25-75% remaining)	< 25 nM	≥ 25 nM	F (F = >75-100% remaining)
CC(C)Cn1cc(-c2c(-c3ccc4c(c3)CN(C3CCC(=O)NC3=O)C4=O)cnn2C)cn1 (stereo not shown) [Example 384]	E (E = >25-75% remaining)	≥ 25 nM	< 25 nM	F (F = >75-100% remaining)
Cn1ncc(-c2ccc3c(c2)CN(C2CCC(=O)NC2=O)C3=O)c1-c1ccc2cccnc2c1 (stereo not shown) [Example 385]	E (E = >25-75% remaining)	< 25 nM	≥ 25 nM	F (F = >75-100% remaining)
Cn1ncc(-c2ccc3c(c2)CN(C2CCC(=O)NC2=O)C3=O)c1-c1ccc2ccn(C)c2c1 (stereo not shown) [Example 386]	E (E = >25-75% remaining)	< 25 nM	≥ 25 nM	F (F = >75-100% remaining)
Cn1ncc(-c2ccc3c(c2)CN(C2CCC(=O)NC2=O)C3=O)c1-c1ccc2c(ccn2C)c1 (stereo not shown) [Example 387]	D (D = >10- 25% remaining)	< 25 nM	≥ 25 nM	F (F = >75-100% remaining)
Cn1ncc(-c2ccc3c(c2)CN(C2CCC(=O)NC2=O)C3=O)c1-c1cnn(CC(F)F)c1 (stereo not shown) [Example 388]	E (E = >25-75% remaining)	≥ 25 nM	≥ 25 nM	F (F = >75-100% remaining)
Cn1ncc(-c2ccc3c(c2)CN(C2CCC(=O)NC2=O)C3=O)c1-c1ccc2cnn(C)c2c1 (stereo not shown) [Example 389]	E (E = >25-75% remaining)	< 25 nM	≥ 25 nM	F (F = >75-100% remaining)
Cn1ncc(-c2ccc3c(c2)CN(C2CCC(=O)NC2=O)C3=O)c1-c1cnc2c(ccn2C)c1 (stereo not shown) [Example 390]	F (F = >75-100% remaining)	< 25 nM	≥ 25 nM	F (F = >75-100% remaining)
Cc1nc2ccc(-c3c(-c4ccc5c(c4)CN(C4CCC(=O)NC4=O)C5=O)cnn3C)cc2[nH]1 (stereo not shown) [Example 391]	C (C = 0-10% remaining)	≥ 25 nM	≥ 25 nM	F (F = >75-100% remaining)
Cn1ncc(-c2ccc3c(c2)CN(C2CCC(=O)NC2=O)C3=O)c1-c1ccc2scnc2c1 (stereo not shown) [Example 392]	E (E = >25-75% remaining)	< 25 nM	≥ 25 nM	F (F = >75-100% remaining)
Cn1ncc(-c2ccc3c(c2)CN(C2CCC(=O)NC2=O)C3=O)c1-c1ccc2ncsc2c1 (stereo not shown) [Example 393]	D (D = >10- 25% remaining)	< 25 nM	≥ 25 nM	F (F = >75-100% remaining)
Cn1ncc(-c2ccc3c(c2)CN(C2CCC(=O)NC2=O)C3=O)c1-c1cnc2sccc2c1 (stereo not shown) [Example 394]	E (E = >25-75% remaining)	≥ 25 nM	≥ 25 nM	F (F = >75-100% remaining)
Cn1ncc(-c2ccc3c(c2)CN(C2CCC(=O)NC2=O)C3=O)c1-c1cnn(-c2ccccc2)c1 (stereo not shown) [Example 395]	F (F = >75-100% remaining)	< 25 nM	< 25 nM	E (E = >25-75% remaining)
Cn1ncc(-c2ccc3c(c2)CN(C2CCC(=O)NC2=O)C3=O)c1-c1ccn(-c2ccc(F)cc2)n1 (stereo not shown) [Example 396]	E (E = >25-75% remaining)	< 25 nM	≥ 25 nM	F (F = >75-100% remaining)
Cc1ccc(-c2c(-c3ccc4c(c3)CN(C3CCC(=O)NC3=O)C4=O)ncn2C)cn1 (stereo not shown) [Example 397]	D (D = >10- 25% remaining)	≥ 25 nM	≥ 25 nM	F (F = >75-100% remaining)
Cc1cc(-c2c(-c3ccc4c(c3)CN(C3CCC(=O)NC3=O)C4=O)ncn2C)ccn1 (stereo not shown) [Example 398]	D (D = >10- 25% remaining)	< 25 nM	< 25 nM	F (F = >75-100% remaining)
Cn1cnc(-c2ccc3c(c2)CN(C2CCC(=O)NC2=O)C3=O)c1-c1cccc(C#N)n1 (stereo not shown) [Example 399]	D (D = >10- 25% remaining)	< 25 nM	≥ 25 nM	F (F = >75-100% remaining)
Cn1cnc(-c2ccc3c(c2)CN(C2CCC(=O)NC2=O)C3=O)c1-c1ccc(=O)n(C)c1 (stereo not shown) [Example 400]	D (D = >10- 25% remaining)	≥ 25 nM	≥ 25 nM	F (F = >75-100% remaining)
Cn1cnc(-c2ccc3c(c2)CN(C2CCC(=O)NC2=O)C3=O)c1-c1ccc2nc[nH]c2c1 (stereo not shown) [Example 401]	C (C = 0-10% remaining)	< 25 nM	≥ 25 nM	E (E = >25-75% remaining)
Cn1cnc(-c2ccc3c(c2)CN(C2CCC(=O)NC2=O)C3=O)c1-c1ccc2scnc2c1 (stereo not shown) [Example 402]	E (E = >25-75% remaining)	< 25 nM	≥ 25 nM	F (F = >75-100% remaining)
Cn1cnc(-c2ccc3c(c2)CN(C2CCC(=O)NC2=O)C3=O)c1-c1ccc(N2CCCCC2)nc1 (stereo not shown) [Example 403]	D (D = >10- 25% remaining)	< 25 nM	≥ 25 nM	F (F = >75-100% remaining)

— patent US20240158370A1, “CK1 alpha AND DUAL CK1 alpha / GSPT1 DEGRADING COMPOUNDS” (Innovo Therapeutics, Inc., priority 2022, published 2024)
